Patent US20040115739A1, “Method for identifying maxi-k channel blockers for use in lowering elevated intraocular pressure using hek-293 cells” (priority 2003, published 2004)

Experiments:
Format in all cases: cell-based
[1] = system: endogenous potassium conductances of HEK-293 cells; assay: VIPR/FRET membrane potential assay, high-potassium addition to HEK-293 cells; details: FIG. 1; for effect on fluorescence signal caused by high-potassium addition: untransfected HEK-293 cells, different/increasing concentrations of compound; for efficacy (inhibition of fluorescence signal) in the presence of Compound 1: HEK-293 cells, selective maxi-K channel blocker Compound 1 present
Protocol: HEK-293 cells were plated on 96-well poly-D-lysine plates and incubated for about 16 to 24 hours at 37° C. The media was aspirated and the cells were washed once with D-PBS. Cells were incubated with 9 μM coumarin (CC2DMPE)-0.02% pluronic-127 in D-PBS for 30 minutes in the dark. Cells were washed twice with D-PBS, and incubated with 4.5 μM oxanol (DiSBAC2(3)) in the absence (Control) or presence of increasing concentrations of test compound, in the dark for 30 minutes. Plates were loaded onto a VIPR instrument and the fluorescence emission of both dyes was recorded for 10 seconds. A solution containing high-potassium was then added and the fluorescence emission of the dyes was recorded for another 10 seconds. The coumarin/oxanol ratio was calculated under both conditions. Before addition of high-potassium, this ratio was always normalized to 1.
The signal is not affected by the presence of different concentrations of the selective maxi-K channel blocker, Compound 1. […] A useful concentration range for these agents is 3-10 μM. Importantly, in the presence of the selective maxi-K channel blocker Compound 1, the efficacy of either Compound A or Compound B is unaffected.

[2] = target: T1, maxi-K channels transiently expressed in TsA-201 cells (Homo sapiens, UniProt Q12791); assay: VIPR/FRET membrane potential assay, maxi-K channels transiently expressed in TsA-201 cells; details: FIG. 2
T1 construct: expressed in transfected cells; host or cells: TsA-201 cells, transient transfection
T1 sequence (Q12791 whole entry): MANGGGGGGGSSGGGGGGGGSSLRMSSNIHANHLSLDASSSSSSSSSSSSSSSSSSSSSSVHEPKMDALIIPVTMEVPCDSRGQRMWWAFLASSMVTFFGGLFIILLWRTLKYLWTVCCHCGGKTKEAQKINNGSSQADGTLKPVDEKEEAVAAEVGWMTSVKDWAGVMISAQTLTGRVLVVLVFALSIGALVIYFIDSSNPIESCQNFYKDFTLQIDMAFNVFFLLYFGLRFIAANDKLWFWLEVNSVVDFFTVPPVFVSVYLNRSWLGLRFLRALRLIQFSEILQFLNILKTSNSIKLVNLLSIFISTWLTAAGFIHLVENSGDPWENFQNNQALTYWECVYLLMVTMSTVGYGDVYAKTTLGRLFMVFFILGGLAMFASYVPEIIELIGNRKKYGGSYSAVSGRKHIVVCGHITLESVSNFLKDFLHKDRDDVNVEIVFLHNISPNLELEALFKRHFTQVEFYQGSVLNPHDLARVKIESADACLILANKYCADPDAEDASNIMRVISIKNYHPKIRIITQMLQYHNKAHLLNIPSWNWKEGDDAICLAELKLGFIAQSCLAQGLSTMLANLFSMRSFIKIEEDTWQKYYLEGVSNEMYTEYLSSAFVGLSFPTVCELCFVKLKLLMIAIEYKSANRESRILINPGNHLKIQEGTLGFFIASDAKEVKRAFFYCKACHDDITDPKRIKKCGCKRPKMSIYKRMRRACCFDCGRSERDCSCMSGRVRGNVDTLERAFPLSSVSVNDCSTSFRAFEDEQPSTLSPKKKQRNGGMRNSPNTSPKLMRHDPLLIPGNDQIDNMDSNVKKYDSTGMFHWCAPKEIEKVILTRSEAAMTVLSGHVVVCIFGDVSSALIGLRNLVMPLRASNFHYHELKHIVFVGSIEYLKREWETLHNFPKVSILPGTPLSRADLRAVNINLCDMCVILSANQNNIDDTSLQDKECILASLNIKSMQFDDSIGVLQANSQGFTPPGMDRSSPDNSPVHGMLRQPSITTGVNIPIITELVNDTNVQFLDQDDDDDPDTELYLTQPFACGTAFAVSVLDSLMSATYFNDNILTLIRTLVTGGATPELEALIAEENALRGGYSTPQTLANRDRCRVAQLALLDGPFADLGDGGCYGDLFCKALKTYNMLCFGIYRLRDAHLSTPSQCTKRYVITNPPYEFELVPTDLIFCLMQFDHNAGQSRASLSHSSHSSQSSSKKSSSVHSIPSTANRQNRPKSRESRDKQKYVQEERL
T1 sequence (Q16558 whole entry partner): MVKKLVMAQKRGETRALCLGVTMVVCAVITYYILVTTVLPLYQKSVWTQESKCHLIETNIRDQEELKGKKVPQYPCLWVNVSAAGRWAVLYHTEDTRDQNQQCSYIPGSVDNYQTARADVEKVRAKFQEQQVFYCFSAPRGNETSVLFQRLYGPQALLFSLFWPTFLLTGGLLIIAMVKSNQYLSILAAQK
Source text: In order to discover novel maxi-K channel blockers, a robust and reliable functional assay is required. High throughput screening assays with ion channels have been developed (see Aurora Biosciences J. E. Gonzalez et al., DDT, 4, 431-439, 1999). For example, transient transfection of maxi-K channel alpha and beta1 subunits into TsA-201 cells leads to the maxi-K channel controlling the membrane potential of those cells, under appropriate experimental conditions. However, transient transfection experiments are limited because, typically, the transfection has to occur for every experiment, the cells are only available for assay twice a week and results can be variable depending on the transfection efficiency. This invention relates to a new functional assay, which utilizes HEK-293 cells, which once transfected remains as such, thereby eliminating the need for further transfection. The claimed method also provides more reliable reading of the maxi-K channel activity.

[3] = target: T2, maxi-K channel (alpha and beta 1 subunits) in stably transfected HEK-293 cells (Homo sapiens, UniProt Q12791); assay: VIPR/FRET membrane potential assay, HEK-293 cells stably transfected with alpha and beta 1 subunits of the maxi-K channel
T2 construct: expressed in transfected cells
T2 sequence (Q12791 whole entry): as the sequence (Q12791 whole entry) above
T2 sequence (Q16558 whole entry partner): as the sequence (Q16558 whole entry partner) above
Protocol: Transfection of the alpha and betal subunits of the maxi-K channel in HEK-293 cells was carried out as follows: HEK-293 cells were plated in 100 mm tissue culture treated dishes at a density of 3×10^6 cells per dish, and a total of five dishes were prepared. Cells were grown in a medium consisting of Dulbecco's Modified Eagle Medium (DMEM) supplemented with 10% Fetal Bovine serum, 1× L-Glutamine, and 1× Penicillin/Streptomycin, at 37° C., 10% CO2. For transfection with Maxi-K hα (pCIneo) and Maxi-K hβ1 (pIRESpuro) DNAs, 150 μl FuGENE6™ was added dropwise into 10 ml of serum free/phenol-red free DMEM and allowed to incubate at room temperature for 5 minutes. Then, the FuGENE6™ solution was added dropwise to a DNA solution containing 25 μg of each plasmid DNA, and incubated at room temperature for 30 minutes. After the incubation period, 2 ml of the FuGENE6™/DNA solution was added dropwise to each plate of cells and the cells were allowed to grow two days under the same conditions as described above. At the end of the second day, cells were put under selection media which consisted of DMEM supplemented with both 600 μg/ml G418 and 0.75 μg/ml puromycin. Cells were grown until separate colonies were formed. Five colonies were collected and transferred to a 6 well tissue culture treated dish. A total of 75 colonies were collected. Cells were allowed to grow until a confluent monolayer was obtained. Cells were then tested for the presence of maxi-K channel alpha and beta1 subunits using an assay that monitors binding of ^125I-iberiotoxin-D19Y/Y36F to the channel. Cells expressing ^125I-iberiotoxin-D19Y/Y36F binding activity were then evaluated in a functional assay that monitors the capability of maxi-K channels to control the membrane potential of transfected HEK-293 cells using fluorescence resonance energy transfer (FRET) ABS technology with a VIPR instrument. The colony giving the largest signal to noise ratio was subjected to limiting dilution. For this, cells were resuspended at approximately 5 cells/ml, and 200 μl were plated in individual wells in a 96 well tissue culture treated plate, to add ca. one cell per well. A total of two 96 well plates were made. When a confluent monolayer was formed, the cells were transferred to 6 well tissue culture treated plates. A total of 62 wells were transferred. When a confluent monolayer was obtained, cells were tested using the FRET-functional assay. […]
The plates are loaded into a voltage/ion probe reader (VIPR) instrument, and the fluorescence emission of both CC2DMPE and DiSBAC2(3) are recorded for 10 sec. At this point, 100 μl of high-potassium solution (mM): 140 KCl, 2 CaCl2, 1 MgCl2, 20 Hepes-KOH, pH 7.4, 10 glucose are added and the fluorescence emission of both dyes recorded for an additional 10 sec. […]

In the case of `CC(=O)SCC(Cc1ccccc1)C(=O)NC(Cc1ccccc1)C(=O)NCCc1ccccc1` (stereo not drawn) [Compound 1], the “effect on fluorescence signal caused by high-potassium addition” value (shortened to “effect on fluorescence signal caused”) [1] is reported as “not affected”, the “inhibition of control signal” value ([2]; 3 μM compound) is reported as “completely inhibits the control signal” and the “inhibition of control signal with increasing concentrations” value ([3]; 3 μM Compound A present in all wells, FIG. 4) is reported as “concentration-dependent inhibition of the control signal”. The “block of signal generated by addition of high-potassium solution” value ([3]; compound alone, no blocker of endogenous conductances, FIG. 3) was “only partially blocks the signal” and the “inhibition of signal generated by addition of high-potassium solution” value ([3]; in the presence of potassium channel blocker Compound A, FIG. 3) was “complete inhibition of the signal”.
In the case of `CCCNC(=O)OC1CCC(CNC(=O)c2ccccc2OC)(c2ccccc2)CC1` (stereo not drawn) [Compound A], the “efficacy (inhibition of fluorescence signal) in the presence of Compound 1” value [1] is reported as “unaffected”, the “effect on fluorescence signal caused” value [1] is reported as “concentration-dependent inhibition of the fluorescence signal” and the “effect on maxi-K channel activity” value [2] is reported as “neither Compound A, nor Compound B have any effect on maxi-K channel activity”. For the same molecule, the “effect on the magnitude of the signal caused by addition of high-potassium solution” value ([3]; stably transfected HEK-293 cells, FIG. 3) was “no significant effect”.
For `COc1ccccc1C(=O)NCC1(c2ccccc2)CCC(=O)CC1` [Compound B], the “efficacy (inhibition of fluorescence signal) in the presence of Compound 1” value [1] was “unaffected”, the “effect on fluorescence signal caused” value [1] was “concentration-dependent inhibition of the fluorescence signal” and the “effect on maxi-K channel activity” value [2] was “neither Compound A, nor Compound B have any effect on maxi-K channel activity”.
